Measurements reported in patent US20210393745A1, “OLIGOMER EXTENDED INSULIN-FC CONJUGATES AND THEIR MEDICAL USE” (Novo Nordisk A/S, priority 2018, published 2021).

How the values were obtained:
[1] = Stability study: high-molecular weight products by native size-exclusion chromatography; assay type: physicochemical; settings: HMWP %(5° C.) − HMWP %(30° C.), 30 μM, pH 7.4
Description: (§1) Samples for stability studies were prepared by weighing out 8-10 mg freeze-dried material. The freeze-dried material was solubilized to […] in a premade solution A (5 mM phophate (pH 7.4), 140 mM NaCl and 70 ppm polysorbate 20). Protein concentration was determined using absorbance at 280 nm using a Nanodrop 2000 (Thermo Fisher Scientific Inc.) and theoretical extinction coefficients. Dilution into solution A was done to reach a final concentration of 30 μM.
Native size-exclusion chromatography was performed on a High-Performance Liquid Chromatography system (Waters Alliance) equipped with a UV/Vis detector (Waters 2489 UV/Vis detector). A Waters XBridge BEH 200 Å, 3.5 μm column with dimensions 7.8×300 mm, kept at 30° C., was used. The mobile phase was 50 mM sodium phosphate (pH 7.0), 50 mM NaCl, 5% isopropyl alcohol (v/v). Injection volume was 5 μL. The flow rate was kept at 0.5 mL/min. Peaks were detected using absorbance at 215 nm and data processing is performed with the EMPOWER 3 software from Waters. Samples were analysed for high molecular weight products (HMWP) by relating the total integral of material eluting before main peak with main monomeric peak. In all chromatograms, full baseline separation was observed. […]
Stability of Fc-insulin analogues was evaluated by comparing purity from anion exchange chromatography and formation of high molecular weight products (HMWP) at 5° C. […]

[2] = molecular target: T1, membrane-associated human IR-B (Homo sapiens, UniProt P06213); assay: Insulin receptor affinity on membrane associated receptors (SPA), IR-B; assay type: binding; settings: relative to human insulin
T1 construct: expressed in transfected cells; host or cells: BHK cells, pZem219B vector, plasma membrane preparation
Description: (§2) Membrane-associated human IR and IGF-1R are purified from BHK cells stably transfected with the pZem219B vector containing either the human IR-A, IR-B or IGF-IR insert. BHK cells are harvested and homogenized in ice-cold buffer (25 mM HEPES pH 7.4, 25 mM CaCl2 and 1 mM MgCl2, 250 mg/L bacitracin, 0.1 mM Pefablock). The homogenates are layered on a 41% (w/v) sucrose cushion and centrifuged for 75 minutes at 95000 g at 4° C. The plasma membranes are collected, diluted 1:5 with buffer (as above) and centrifuged again for 45 minutes at 40000 g at 4° C. The pellets are resuspended in a minimal volume of buffer and drawn through a needle (size 23) three times before storage at −80° C. until usage. The relative binding affinity for either of the membrane-associated human IR-A, IR-B or IGF-1R is determined by competition binding in a SPA setup. IR assays are performed in duplicate in 96-well OptiPlates (Perkin-Elmer Life Sciences). Membrane protein is incubated with gentle agitation for 150 minutes at 25° C. with 50 pM [^125IA14Y]-human insulin in a total volume of […] assay buffer (50 mM HEPES, 150 mM NaCl, 5 mM MgSO4, 0.01% Triton X-100, 0.1% (w/v) HSA (Sigma A1887), Complete EDTA-free protease inhibitors), 50 μg of wheat germ agglutinate (WGA)-coated PVT microspheres (GE Healthcare) and increasing concentrations of ligand. Assays are terminated by centrifugation of the plate at 2000 rpm for 2 minutes and bound radioactivity quantified by counting on a TopCount NXT (Perkin-Elmer Life Sciences).
(§3) IGF-1R assays are conducted essentially as for the IR binding assays except that membrane-associated IGF-1R and 50 pM [^125I-Tyr31]-human IGF-1 were employed.

[3] = Stability study: purity by anionic exchange chromatography; assay type: physicochemical; settings: purity %(5° C.) − purity %(30° C.), 30 μM, pH 7.4
Description: as §1
Anionic exchange chromatography was performed on an Ultra-Performance Liquid Chromatography system (Waters Acquity H-Class) equipped with a fluorescence detector (Waters Acquity FLR Detector). A Bio SAX column with dimensions 50×4.6 mm from Agilent, kept at 30° C., was used in gradient elution mode. Mobile phase A was 5/95 (v/v), acetonitrile/water with 25 mM BIS-TRIS propane, pH 7.3 and mobile phase B was 5/95 (v/v), acetonitrile/water with 25 mM BIS-TRIS propane and 350 mM NaCl, pH 7.3. Injection volume was 3 μL. The flow rate was kept at 0.5 mL/min with a linear gradient from 10 to 47% B in 3 min followed by a linear gradient from 47 to 55% B in 30 min. Peaks were detected with an emission wavelength of […] and data processing is performed with the EMPOWER 3 software from Waters. Samples were analysed for purity as percent API in relation to all other species.
Reported as Δ purity %=purity %(5° C.)−purity % (30° C.).
Stability of Fc-insulin analogues was evaluated by comparing purity from anion exchange chromatography and formation of high molecular weight products (HMWP) at 5° C. (control) versus 30° C. (heat induced stress). […] The amount of HMWP was decreased by 0.5-2% in the stressed sample versus the control, i.e. some aggregated material has disassociated during incubation at 30° C.

[4] = test system: streptozotocin treated Sprague-Dawley rats; assay: In vivo PD, blood glucose lowering in streptozotocin treated rats; set-up: species or system Sprague-Dawley rat; settings: s.c. 30 nmol/kg, baseline corrected BG up to 10 days, difference from vehicle, mean
Description: (§4) Insulin-Fc conjugates were tested in vivo by subcutaneous (s.c.) administration to normal and streptozotocin (STZ) treated male Sprague-Dawley (SD) rats.
(§5) The rats were dosed s.c. in the neck region with a dose of 30 nmol/kg of the insulin-Fc conjugates. Blood samples for blood glucose and plasma insulin analysis were collected from the tongue vein up to 10 days post dosing. The insulin-Fc concentrations were measured by immuno-assay (LLOQ=1000 pM) and the resulting half-life values after s.c. dosing are shown in Table 4. The PK profiles for normal rats are shown in FIG. 3 and for streptozotocin treated rats in FIG. 6. Blood glucose (BG) was measured using Biosen S Line (EKF) and the BG and baseline corrected BG profiles for normal rats are shown in FIGS. 1 and 2 and for streptozotocin treated rats in FIGS. 4 and 5 respectively.

[5] = molecular target: T2, membrane-associated human IGF-1R (Homo sapiens, UniProt P08069); assay: IGF-1 receptor affinity on membrane associated receptors (SPA); assay type: binding; settings: membrane-associated IGF-1R, relative to human insulin
T2 construct: expressed in transfected cells; host or cells: BHK cells, pZem219B vector, plasma membrane preparation
Description: as §2, §3

[6] = test system: normal Sprague-Dawley rats; assay: In vivo PD, blood glucose lowering in normal rats; set-up: species or system Sprague-Dawley rat; settings: s.c. 30 nmol/kg, baseline corrected BG up to 10 days, difference from vehicle, mean
Description: as §4, §5

[7] = test system: primary rat adipocytes; assay: Lipogenesis in rat adipocytes; assay type: cell-based; settings: relative to human insulin
Description: As a measure of in vitro potency of the insulin conjugatess of the invention, lipogenesis can be used. Primary rat adipocytes are isolated from the epididymale fat pads and incubated with 3H-glucose in buffer containing e.g. 0.1% fat free HSA and either standard (human insulin, HI) or insulin conjugates of the invention. The labelled glucose is converted into extractable lipids in a dose dependent way, resulting in full dose response curves. The result is expressed as relative potency (%) with 95% confidence limits of insulin of the invention compared to standard (HI).

T1 sequence (P06213 28-758 limits assumed): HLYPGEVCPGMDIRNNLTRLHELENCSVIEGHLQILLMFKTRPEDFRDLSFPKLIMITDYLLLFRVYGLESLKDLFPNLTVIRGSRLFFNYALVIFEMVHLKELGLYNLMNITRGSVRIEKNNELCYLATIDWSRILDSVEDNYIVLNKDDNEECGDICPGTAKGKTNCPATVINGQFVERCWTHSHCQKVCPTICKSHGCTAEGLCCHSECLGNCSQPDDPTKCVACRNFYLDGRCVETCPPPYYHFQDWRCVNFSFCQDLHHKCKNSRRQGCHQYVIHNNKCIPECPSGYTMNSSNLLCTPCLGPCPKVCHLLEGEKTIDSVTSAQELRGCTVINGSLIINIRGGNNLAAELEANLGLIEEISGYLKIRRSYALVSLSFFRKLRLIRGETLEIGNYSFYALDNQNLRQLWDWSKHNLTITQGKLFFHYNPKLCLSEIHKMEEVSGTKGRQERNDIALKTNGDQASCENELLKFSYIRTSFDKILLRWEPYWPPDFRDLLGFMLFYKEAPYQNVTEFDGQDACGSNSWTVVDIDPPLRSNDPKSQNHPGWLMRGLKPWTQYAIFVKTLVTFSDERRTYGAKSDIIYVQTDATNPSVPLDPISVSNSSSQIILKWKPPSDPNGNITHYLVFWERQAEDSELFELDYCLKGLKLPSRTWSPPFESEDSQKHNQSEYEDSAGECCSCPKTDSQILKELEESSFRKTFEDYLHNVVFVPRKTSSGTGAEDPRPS
T1 sequence (P06213 763-1382 partner limits assumed): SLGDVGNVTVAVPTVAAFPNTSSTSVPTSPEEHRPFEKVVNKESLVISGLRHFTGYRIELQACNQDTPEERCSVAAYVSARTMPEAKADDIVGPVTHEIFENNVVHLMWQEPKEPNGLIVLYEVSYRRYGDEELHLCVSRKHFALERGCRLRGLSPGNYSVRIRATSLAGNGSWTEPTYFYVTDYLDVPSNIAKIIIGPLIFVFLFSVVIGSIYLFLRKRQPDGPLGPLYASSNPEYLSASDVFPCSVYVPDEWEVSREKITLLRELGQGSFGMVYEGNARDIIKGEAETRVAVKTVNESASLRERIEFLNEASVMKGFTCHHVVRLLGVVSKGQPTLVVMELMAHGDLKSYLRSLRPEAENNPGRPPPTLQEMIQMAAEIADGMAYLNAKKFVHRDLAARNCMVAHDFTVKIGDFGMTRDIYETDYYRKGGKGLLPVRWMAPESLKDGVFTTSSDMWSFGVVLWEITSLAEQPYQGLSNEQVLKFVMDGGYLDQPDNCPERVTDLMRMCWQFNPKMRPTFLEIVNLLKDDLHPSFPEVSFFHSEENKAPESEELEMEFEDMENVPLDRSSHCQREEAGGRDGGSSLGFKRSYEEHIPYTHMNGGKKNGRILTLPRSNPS
T2 sequence (P08069 31-736 limits assumed): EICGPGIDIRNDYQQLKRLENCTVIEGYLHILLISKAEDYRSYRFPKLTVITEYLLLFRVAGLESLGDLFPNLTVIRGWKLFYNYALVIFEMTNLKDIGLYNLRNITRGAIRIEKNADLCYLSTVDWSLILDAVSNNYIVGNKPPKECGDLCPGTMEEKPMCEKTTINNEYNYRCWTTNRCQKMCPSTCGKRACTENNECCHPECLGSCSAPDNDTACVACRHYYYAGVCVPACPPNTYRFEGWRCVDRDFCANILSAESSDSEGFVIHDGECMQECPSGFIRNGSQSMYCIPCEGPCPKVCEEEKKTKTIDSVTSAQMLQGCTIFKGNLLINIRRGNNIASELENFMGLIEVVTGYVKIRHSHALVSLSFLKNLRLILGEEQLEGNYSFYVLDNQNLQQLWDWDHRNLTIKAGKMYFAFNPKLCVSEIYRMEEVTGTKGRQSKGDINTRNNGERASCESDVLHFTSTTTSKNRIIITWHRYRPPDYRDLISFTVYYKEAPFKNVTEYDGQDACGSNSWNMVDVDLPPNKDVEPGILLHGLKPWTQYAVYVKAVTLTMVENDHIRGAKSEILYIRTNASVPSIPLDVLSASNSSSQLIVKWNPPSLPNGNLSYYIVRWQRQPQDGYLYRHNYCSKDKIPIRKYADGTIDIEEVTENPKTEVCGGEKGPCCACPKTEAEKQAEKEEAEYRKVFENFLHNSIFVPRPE
T2 sequence (P08069 741-1367 partner limits assumed): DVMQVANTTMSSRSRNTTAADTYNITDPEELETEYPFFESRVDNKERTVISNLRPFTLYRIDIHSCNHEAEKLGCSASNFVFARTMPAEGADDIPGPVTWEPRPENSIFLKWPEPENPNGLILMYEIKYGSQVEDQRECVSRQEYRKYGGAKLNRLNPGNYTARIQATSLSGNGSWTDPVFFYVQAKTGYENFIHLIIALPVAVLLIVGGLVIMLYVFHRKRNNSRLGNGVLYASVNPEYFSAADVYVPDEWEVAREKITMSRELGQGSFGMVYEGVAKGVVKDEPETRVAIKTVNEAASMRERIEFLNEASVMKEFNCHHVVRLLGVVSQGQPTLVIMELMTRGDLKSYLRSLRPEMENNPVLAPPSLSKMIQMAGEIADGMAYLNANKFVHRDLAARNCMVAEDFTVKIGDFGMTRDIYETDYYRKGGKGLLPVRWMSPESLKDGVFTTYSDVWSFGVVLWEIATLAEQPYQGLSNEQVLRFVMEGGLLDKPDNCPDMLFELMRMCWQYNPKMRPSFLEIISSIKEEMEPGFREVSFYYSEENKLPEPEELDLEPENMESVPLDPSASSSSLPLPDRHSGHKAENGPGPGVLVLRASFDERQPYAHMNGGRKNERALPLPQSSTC

Substance	Δ HMWP % [1]	hIR-B mem Rel. aff. (%) [2]	Δ purity [3]	AOCBG STZ rat [4]	IGF1R mem Rel. aff. (%) [5]	AOCBG normal rat [6]	Lipogenesis Rel. pot. (%) [7]
(A14E, A21G, A22(GQEP)11, A66G, A67Q, A68E, A69K^, A70P, B16H, B25H, B29R, desB30 human insulin)/(226A, 227G, 228P, 234A, 235K, 297E, 315Q, 384Q, des447 hIgG4-Fc(226-447))3,5-bis[(2-acetyl)amino]benzoyl Conjugate [Example 5.2]	−0.63%	1.26%	6.7%	4106 mM·h	0.10%	364 mM·h	1.14%
(A14E, A21G, A22(GQEP)12, A70K^, A71P, B25H, B29R, desB30 human insulin)/(226A, 227G, 228P, 234A, 235K, 297E, 315Q, 384Q, des447 hIgG4-Fc(226-447))3,5-bis[(2-acetyl)amino]benzoyl Conjugate [Example 5.1]	−2.17%	3.05%	3.3%	3181 mM·h	0.91%	251 mM·h	2.86%
